Data taken from patent US20240384350A1, “METHODS OF TREATING CANCER WITH KINASE INHIBITORS” (BOARD OF REGENTS, THE UNIVERSITY OF TEXAS SYSTEM, priority 2021, published 2024).

Assays:
Test in all cases: Ba/F3 drug screening, Cell Titer Glo, IC50 Mut/WT
Format in all cases: cell-based
EGFR L858R T790M V843I = target: T1, EGFR L858R T790M V843I (Homo sapiens, UniProt P00533, L858R/T790M/V843I); settings: T790M-like-3S, 72 hours
T1 construct: expressed in transfected cells; host or cells: Ba/F3

EGFR E709K L858R = target: T2, EGFR E709K L858R (Homo sapiens, UniProt P00533, E709K/L858R); settings: Classical-Like, 72 hours
T2 construct: expressed in transfected cells; host or cells: Ba/F3 cells, retroviral pBabe-Puro vector
Description: (§1) Data represent the ratio of the IC50 value for a given TKI for cells with a classical-like EGFR mutation to the IC50 value for cells with wildtype EGFR.
(§2) Ba/F3 cell generation, drug screening, and IC50 approximations. Ba/F3 cells were obtained as a gift from Dr. Gordon Mills (MD Anderson Cancer Center), and maintained in RPMI (Sigma) containing 10% FBS, 1% penicillin/streptomycin, and 10 ng/ml recombinant mIL-3 (R&D Biosystems). To establish stable Ba/F3 cell lines, Ba/F3 cells were transduced with retroviruses containing mutant EGFR plasmids for 12-24 hours.
(§3) After 48-72 hours of transduction, 2 μg/ml puromycin (Invitrogen) was added to Ba/F3 cell lines in complete RPMI. To select for EGFR positive cell lines, cells were stained with PE-EGFR (Biolegend) and sorted by FACS. After sorting, EGFR positive cells were maintained in RPMI containing 10% FBS, 1% penicillin/streptomycin, and 1 ng/ml EGF to support cell viability. […] Shortly, cells were plated in 384-well plates (Greiner Bio-One) at 2000-3000 cells per well in technical triplicate. Seven different concentrations of TKIs or DMSO vehicle were added to reach a final volume of 40 μL per well. After 72 hours, 11 μL of Cell Titer Glo (Promega) was added to each well. Plates were incubated for a minimum of 10 minutes, and bioluminescence was determined using a FLUOstar OPTIMA plate reader (BMG LABTECH). Raw bioluminescence values were normalized to DMSO control treated cells, and values were plotted in GraphPad Prism. […] Drug screens were performed in technical triplicate on each plate and either duplicate or triplicate biological replicates.

EGFR K754E = target: T3, EGFR K754E (Homo sapiens, UniProt P00533, K754E); settings: Classical-Like, 72 hours
T3 construct: expressed in transfected cells; host or cells: Ba/F3 cells, retroviral pBabe-Puro vector

EGFR D770insNPG = target: T4, EGFR D770insNPG (Homo sapiens, UniProt P00533, INS770NPG); settings: Ex20, 72 hours
T4 construct: expressed in transfected cells; host or cells: Ba/F3 cells, retroviral pBabe-Puro vector
Description: (§4) Data represent the ratio of the IC50 value for a given TKI for cells with an ex20ins EGFR mutation to the IC50 value for cells with wildtype EGFR.
as §2
(§5) After 48-72 hours of transduction, 2 μg/ml puromycin (Invitrogen) was added to Ba/F3 cell lines in complete RPMI. To select for EGFR positive cell lines, cells were stained with PE-EGFR (Biolegend) and sorted by FACS. After sorting, EGFR positive cells were maintained in RPMI containing 10% FBS, 1% penicillin/streptomycin, and 1 ng/ml EGF to support cell viability. Drug screening was performed as previously described^41,42. Shortly, cells were plated in 384-well plates (Greiner Bio-One) at 2000-3000 cells per well in technical triplicate. Seven different concentrations of TKIs or DMSO vehicle were added to reach a final volume of 40 μL per well. After 72 hours, 11 μL of Cell Titer Glo (Promega) was added to each well. Plates were incubated for a minimum of 10 minutes, and bioluminescence was determined using a FLUOstar OPTIMA plate reader (BMG LABTECH). Raw bioluminescence values were normalized to DMSO control treated cells, and values were plotted in GraphPad Prism. […] Drug screens were performed in technical triplicate on each plate and either duplicate or triplicate biological replicates. […] Statistical differences between groups were determined by ANOVA as described in the figure legends.

EGFR L858R G724S = target: T5, EGFR L858R G724S (Homo sapiens, UniProt P00533, G724S/L858R); settings: Ba/F3 cells, EGFR L858R G724S (PACC), Mut/WT
T5 construct: expressed in transfected cells; host or cells: Ba/F3 (retroviral transduction, pBabe-Puro based vectors)

EGFR T725M = target: T6, EGFR T725M (Homo sapiens, UniProt P00533, T725M); settings: Classical-Like, 72 hours
T6 construct: expressed in transfected cells; host or cells: Ba/F3 cells, retroviral pBabe-Puro vector (vector made by GeneScript from EGFR WT)
Description: as §1, §2, §3

EGFR N771dupN = target: T7, EGFR N771dupN (Homo sapiens, UniProt P00533, DUP771-771); settings: Ex20, 72 hours
T7 construct: expressed in transfected cells; host or cells: Ba/F3 cells, retroviral pBabe-Puro vector
Description: as §4, §2, §5

EGFR S768I = target: T8, EGFR S768I (Homo sapiens, UniProt P00533, S768I); settings: Ba/F3 cells, EGFR S768I (PACC), Mut/WT
T8 construct: expressed in transfected cells; host or cells: Ba/F3
Description: (§6) Data represent the ratio of the IC50 value for a given TKI for cells with a PACC EGFR mutation to the IC50 value for cells with wildtype EGFR.
as §2, §5

EGFR G719S = target: T9, EGFR G719S (Homo sapiens, UniProt P00533, G719S); settings: Ba/F3 cells, EGFR G719S (PACC), Mut/WT
T9 construct: expressed in transfected cells; host or cells: Ba/F3
Description: as §6, §2
(§7) After 48-72 hours of transduction, 2 μg/ml puromycin (Invitrogen) was added to Ba/F3 cell lines in complete RPMI. To select for EGFR positive cell lines, cells were stained with PE-EGFR (Biolegend) and sorted by FACS. After sorting, EGFR positive cells were maintained in RPMI containing 10% FBS, 1% penicillin/streptomycin, and 1 ng/ml EGF to support cell viability. Drug screening was performed as previously described^41,42. Shortly, cells were plated in 384-well plates (Greiner Bio-One) at 2000-3000 cells per well in technical triplicate. Seven different concentrations of TKIs or DMSO vehicle were added to reach a final volume of 40 μL per well. After 72 hours, 11 μL of Cell Titer Glo (Promega) was added to each well. Plates were incubated for a minimum of 10 minutes, and bioluminescence was determined using a FLUOstar OPTIMA plate reader (BMG LABTECH). Raw bioluminescence values were normalized to DMSO control treated cells, and values were plotted in GraphPad Prism. […] Drug screens were performed in technical triplicate on each plate and either duplicate or triplicate biological replicates.

EGFR Ex19del/T790M/L792H = target: T10, EGFR Ex19del/T790M/L792H (Homo sapiens, UniProt P00533, DEL746-750/L792H/T790M); settings: T790M-like-3R, 72 hours
T10 construct: expressed in transfected cells; host or cells: Ba/F3

EGFR S811F = target: T11, EGFR S811F (Homo sapiens, UniProt P00533, S811F); settings: Classical-Like, 72 hours
T11 construct: expressed in transfected cells; host or cells: Ba/F3 cells, retroviral pBabe-Puro vector (vector made by GeneScript from EGFR WT)
Description: as §1, §2, §3

EGFR A763insFQEA = target: T12, EGFR A763insFQEA (Homo sapiens, UniProt P00533, INS763FQEA); settings: Classical-Like, 72 hours
T12 construct: expressed in transfected cells; host or cells: Ba/F3 cells, retroviral pBabe-Puro vector
Description: as §1, §2, §3

EGFR V769L = target: T13, EGFR V769L (Homo sapiens, UniProt P00533, V769L); settings: Ba/F3 cells, EGFR V769L (PACC), Mut/WT
T13 construct: expressed in transfected cells; host or cells: Ba/F3

EGFR S720P = target: T14, EGFR S720P (Homo sapiens, UniProt P00533, S720P); settings: Classical-Like, 72 hours
T14 construct: expressed in transfected cells; host or cells: Ba/F3 cells, retroviral pBabe-Puro vector (vector made by GeneScript from EGFR WT)
Description: as §1, §2, §3

EGFR Ex19del T790M C797S = target: T15, EGFR Ex19del T790M C797S (Homo sapiens, UniProt P00533, C797S/DEL746-750/T790M); settings: T790M-like-3R, 72 hours
T15 construct: expressed in transfected cells; host or cells: Ba/F3
Description: Data represent the ratio of the IC50 value for a given TKI for cells with a T790M-like-3R EGFR mutation to the IC50 value for cells with wildtype EGFR.
as §2
After 48-72 hours of transduction, 2 μg/ml puromycin (Invitrogen) was added to Ba/F3 cell lines in complete RPMI. To select for EGFR positive cell lines, cells were stained with PE-EGFR (Biolegend) and sorted by FACS. After sorting, EGFR positive cells were maintained in RPMI containing 10% FBS, 1% penicillin/streptomycin, and 1 ng/ml EGF to support cell viability. […] Shortly, cells were plated in 384-well plates (Greiner Bio-One) at 2000-3000 cells per well in technical triplicate. Seven different concentrations of TKIs or DMSO vehicle were added to reach a final volume of 40 μL per well. After 72 hours, 11 μL of Cell Titer Glo (Promega) was added to each well. Plates were incubated for a minimum of 10 minutes, and bioluminescence was determined using a FLUOstar OPTIMA plate reader (BMG LABTECH). Raw bioluminescence values were normalized to DMSO control treated cells, and values were plotted in GraphPad Prism. […] Drug screens were performed in technical triplicate on each plate and either duplicate or triplicate biological replicates. […] Statistical differences between groups were determined by ANOVA as described in the figure legends.

EGFR Ex19del L718V = target: T16, EGFR Ex19del L718V (Homo sapiens, UniProt P00533, DEL746-750/L718V); settings: Ba/F3 cells, EGFR Ex19del L718V (PACC), Mut/WT
T16 construct: expressed in transfected cells; host or cells: Ba/F3

EGFR L858R/T790M/C797S = target: T17, EGFR L858R/T790M/C797S (Homo sapiens, UniProt P00533, C797S/L858R/T790M); settings: T790M-like-3R, 72 hours
T17 construct: expressed in transfected cells; host or cells: Ba/F3

EGFR Ex19del/L792H = target: T18, EGFR Ex19del/L792H (Homo sapiens, UniProt P00533, DEL746-750/L792H); settings: Ba/F3 cells, EGFR Ex19del/L792H (PACC), Mut/WT
T18 construct: expressed in transfected cells; host or cells: Ba/F3
Description: as §6, §2, §7

EGFR S768dupSVD = target: T19, EGFR S768dupSVD (Homo sapiens, UniProt P00533, DUP768-770); settings: Ex20, 72 hours
T19 construct: expressed in transfected cells; host or cells: Ba/F3 cells, retroviral pBabe-Puro vector
Description: as §4, §2, §5

EGFR S784F = target: T20, EGFR S784F (Homo sapiens, UniProt P00533, S784F); settings: Classical-Like, 72 hours
T20 construct: expressed in transfected cells; host or cells: Ba/F3 cells, retroviral pBabe-Puro vector (vector made by GeneScript from EGFR WT)
Description: as §1, §2, §3

EGFR R776C = target: T21, EGFR R776C (Homo sapiens, UniProt P00533, R776C); settings: Ba/F3 cells, EGFR R776C (PACC), Mut/WT
T21 construct: host or cells: Ba/F3
Description: as §6, §2, §7

EGFR K757R = target: T22, EGFR K757R (Homo sapiens, UniProt P00533, K757R); settings: Ba/F3 cells, EGFR K757R (PACC), Mut/WT
T22 construct: expressed in transfected cells; host or cells: Ba/F3
Description: as §6, §2, §5

EGFR L718Q T790M = target: T23, EGFR L718Q T790M (Homo sapiens, UniProt P00533, L718Q/T790M); settings: T790M-like-3R, 72 hours
T23 construct: expressed in transfected cells; host or cells: Ba/F3

EGFR S768I V774M = target: T24, EGFR S768I V774M (Homo sapiens, UniProt P00533, S768I/V774M); settings: Ba/F3 cells, EGFR S768I V774M (PACC), Mut/WT
T24 construct: host or cells: Ba/F3
Description: as §6, §2, §7

EGFR Ex19del/C797S = target: T25, EGFR Ex19del/C797S (Homo sapiens, UniProt P00533, C797S/DEL746-750); settings: Ba/F3 cells, EGFR Ex19del/C797S (PACC), Mut/WT
T25 construct: expressed in transfected cells; host or cells: Ba/F3

EGFR L861Q = target: T26, EGFR L861Q (Homo sapiens, UniProt P00533, L861Q); settings: Classical-Like, 72 hours
T26 construct: expressed in transfected cells; host or cells: Ba/F3 cells, retroviral pBabe-Puro vector
Description: as §1, §2, §3

EGFR E709K G719S = target: T27, EGFR E709K G719S (Homo sapiens, UniProt P00533, E709K/G719S); settings: Ba/F3 cells, EGFR E709K G719S (PACC), Mut/WT
T27 construct: expressed in transfected cells; host or cells: Ba/F3

Row | Structure (SMILES) | ratio of IC50 for cells with mutant EGFR to IC50 for cells with wildtype EGFR (Mut/WT) (EGFR L858R T790M V843I) | ratio of IC50 for cells with mutant EGFR to IC50 for cells with wildtype EGFR (Mut/WT) (EGFR E709K L858R) | ratio of IC50 for cells with mutant EGFR to IC50 for cells with wildtype EGFR (Mut/WT) (EGFR K754E) | ratio of IC50 for cells with mutant EGFR to IC50 for cells with wildtype EGFR (Mut/WT) (EGFR D770insNPG) | ratio of the IC50 value for cells with a PACC EGFR mutation to the IC50 value for cells with wildtype EGFR (EGFR L858R G724S) | ratio of IC50 for cells with mutant EGFR to IC50 for cells with wildtype EGFR (Mut/WT) (EGFR T725M) | ratio of the IC50 value for cells with a PACC EGFR mutation to the IC50 value for cells with wildtype EGFR (EGFR S768I) | ratio of the IC50 value for cells with a PACC EGFR mutation to the IC50 value for cells with wildtype EGFR (EGFR G719S) | ratio of IC50 for cells with mutant EGFR to IC50 for cells with wildtype EGFR (Mut/WT) (EGFR Ex19del/T790M/L792H) | ratio of IC50 for cells with mutant EGFR to IC50 for cells with wildtype EGFR (Mut/WT) (EGFR S811F) | ratio of IC50 for cells with mutant EGFR to IC50 for cells with wildtype EGFR (Mut/WT) (EGFR A763insFQEA) | ratio of the IC50 value for cells with a PACC EGFR mutation to the IC50 value for cells with wildtype EGFR (EGFR V769L) | ratio of IC50 for cells with mutant EGFR to IC50 for cells with wildtype EGFR (Mut/WT) (EGFR S720P) | ratio of IC50 for cells with mutant EGFR to IC50 for cells with wildtype EGFR (Mut/WT) (EGFR Ex19del T790M C797S) | ratio of the IC50 value for cells with a PACC EGFR mutation to the IC50 value for cells with wildtype EGFR (EGFR Ex19del L718V) | ratio of IC50 for cells with mutant EGFR to IC50 for cells with wildtype EGFR (Mut/WT) (EGFR L858R/T790M/C797S) | ratio of the IC50 value for cells with a PACC EGFR mutation to the IC50 value for cells with wildtype EGFR (EGFR Ex19del/L792H) | ratio of IC50 for cells with mutant EGFR to IC50 for cells with wildtype EGFR (Mut/WT) (EGFR S768dupSVD) | ratio of IC50 for cells with mutant EGFR to IC50 for cells with wildtype EGFR (Mut/WT) (EGFR S784F) | ratio of the IC50 value for cells with a PACC EGFR mutation to the IC50 value for cells with wildtype EGFR (EGFR R776C) | also measured
1 | C=CC(=O)Nc1cc(Nc2nccc(-c3c[nH]c4ccccc34)n2)c(OC)cc1N(C)CCN(C)C [AZ5104] | 0.6934 | 0.1151 | 0.01871 | 1.976 | 0.001759 | 0.959 | 1.361 | 0.3756 | 1.486 | 0.002871 | 0.3966 | 1.367 | 0.009841 | 56.35 | 1.339 | 78.11 | 1.778 | 1.73 | 0.01428 | 0.1019 | ratio of IC50 for cells with mutant EGFR to IC50 for cells with wildtype EGFR (Mut/WT) (EGFR N771dupN): 0.6044; ratio of the IC50 value for cells with a PACC EGFR mutation to the IC50 value for cells with wildtype EGFR (EGFR K757R): 0.1894; ratio of IC50 for cells with mutant EGFR to IC50 for cells with wildtype EGFR (Mut/WT) (EGFR L718Q T790M): 26.6; ratio of the IC50 value for cells with a PACC EGFR mutation to the IC50 value for cells with wildtype EGFR (EGFR S768I V774M): 0.5809; ratio of the IC50 value for cells with a PACC EGFR mutation to the IC50 value for cells with wildtype EGFR (EGFR Ex19del/C797S): 49.96; ratio of IC50 for cells with mutant EGFR to IC50 for cells with wildtype EGFR (Mut/WT) (EGFR L861Q): 0.5871; ratio of the IC50 value for cells with a PACC EGFR mutation to the IC50 value for cells with wildtype EGFR (EGFR E709K G719S): 0.7973
2 | C=CC(=O)Nc1cc(Nc2nccc(-n3cc(CN(C)C)c(-c4ccccc4)n3)n2)c(OC)cc1N1CCOCC1 [Lazertinib] | 0.06612 | 0.0006261 | 0.1385 | 4.93 | 0.0004647 | 0.004466 | 1.26 | 0.1555 | 1.105 | 0.01158 | 0.03797 | 1.618 | 0.01568 | 26.17 | 0.04944 | 23.29 | 0.001792 | 4.027 | 0.245 | 1.504 | ratio of the IC50 value for cells with a PACC EGFR mutation to the IC50 value for cells with wildtype EGFR (EGFR K757R): 0.349; ratio of IC50 for cells with mutant EGFR to IC50 for cells with wildtype EGFR (Mut/WT) (EGFR L718Q T790M): 3.513; ratio of the IC50 value for cells with a PACC EGFR mutation to the IC50 value for cells with wildtype EGFR (EGFR S768I V774M): 0.7678; ratio of the IC50 value for cells with a PACC EGFR mutation to the IC50 value for cells with wildtype EGFR (EGFR Ex19del/C797S): 11.82; ratio of IC50 for cells with mutant EGFR to IC50 for cells with wildtype EGFR (Mut/WT) (EGFR L861Q): 0.05622; ratio of the IC50 value for cells with a PACC EGFR mutation to the IC50 value for cells with wildtype EGFR (EGFR E709K G719S): 0.2652
